Converted amounts (≈) assume the structure as drawn. The source made the active and inactive calls. The rule behind the calls is not given here.
Columns and labels:
Format in all cases: functional
Pseudomonas aeruginosa [1] = assay: Antibacterial activity against Pseudomonas aeruginosa 71 assessed as growth inhibition at MIC after 24 hr by agar dilution method
Micrococcus luteus [2] = assay: Antibacterial activity against Micrococcus luteus ATCC 9341 assessed as growth inhibition at MIC after 24 hr by agar dilution method
Vibrio cholerae [3] = assay: Antibacterial activity against Vibrio cholerae 759 assessed as growth inhibition after 24 hr by agar dilution method
Bacillus pumilus [4] = assay: Antibacterial activity against Bacillus pumilus 11778 assessed as growth inhibition after 24 hr by agar dilution method
Vibrio cholerae [5] = assay: Antibacterial activity against Vibrio cholerae 759 assessed as growth inhibition at MIC after 24 hr by agar dilution method
Pseudomonas aeruginosa [6] = assay: Antibacterial activity against Pseudomonas aeruginosa 71 assessed as growth inhibition after 24 hr by agar dilution method
Bacillus pumilus [7] = assay: Antibacterial activity against Bacillus pumilus 11778 assessed as growth inhibition at MIC after 24 hr by agar dilution method
Shigella dysenteriae [8] = assay: Antibacterial activity against Shigella dysenteriae 15 assessed as growth inhibition at MIC after 24 hr by agar dilution method
Shigella dysenteriae [9] = assay: Antibacterial activity against Shigella dysenteriae 15 assessed as growth inhibition after 24 hr by agar dilution method
Klebsiella pneumoniae [10] = assay: Antibacterial activity against Klebsiella pneumoniae J/I/4 assessed as growth inhibition after 24 hr by agar dilution method
Escherichia coli [11] = assay: Antibacterial activity against Escherichia coli 319 assessed as growth inhibition after 24 hr by agar dilution method
Staphylococcus aureus [12] = assay: Antibacterial activity against Staphylococcus aureus 29737 assessed as growth inhibition at MIC after 24 hr by agar dilution method
Micrococcus luteus [13] = assay: Antibacterial activity against Micrococcus luteus ATCC 9341 assessed as growth inhibition after 24 hr by agar dilution method
Escherichia coli [14] = assay: Antibacterial activity against Escherichia coli 319 assessed as growth inhibition at MIC after 24 hr by agar dilution method
Klebsiella pneumoniae [15] = assay: Antibacterial activity against Klebsiella pneumoniae J/I/4 assessed as growth inhibition at MIC after 24 hr by agar dilution method
Staphylococcus aureus [16] = assay: Antibacterial activity against Staphylococcus aureus 29737 assessed as growth inhibition after 24 hr by agar dilution method
Candida tropicalis [17] = assay: Antifungal activity against Candida tropicalis assessed as growth inhibition after 96 hr by agar dilution method
Candida albicans [18] = assay: Antifungal activity against Candida albicans assessed as growth inhibition after 96 hr by agar dilution method
Cryptococcus neoformans [19] = assay: Antifungal activity against Cryptococcus neoformans assessed as growth inhibition after 96 hr by agar dilution method
Aspergillus niger [20] = assay: Antifungal activity against Aspergillus niger assessed as growth inhibition after 96 hr by agar dilution method
Aspergillus niger [21] = assay: Antifungal activity against Aspergillus niger assessed as growth inhibition at MIC after 96 hr by agar dilution method
Candida tropicalis [22] = assay: Antifungal activity against Candida tropicalis assessed as growth inhibition at MIC after 96 hr by agar dilution method
Cryptococcus neoformans [23] = assay: Antifungal activity against Cryptococcus neoformans assessed as growth inhibition at MIC after 96 hr by agar dilution method
Candida albicans [24] = assay: Antifungal activity against Candida albicans assessed as growth inhibition at MIC after 96 hr by agar dilution method
[25] = Pseudomonas aeruginosa, 71, 24 h
[26] = Staphylococcus aureus, 29737, 24 h

Molecule | diameter of the inhibition zone (DIZ) (Pseudomonas aeruginosa [1]) | diameter of the inhibition zone (DIZ) (Micrococcus luteus [2]) | MIC (Vibrio cholerae [3]; Vibrio cholerae, 759, 24 h) [µg/mL] | MIC (Bacillus pumilus [4]; Bacillus pumilus, 11778, 24 h) [µg/mL] | diameter of the inhibition zone (DIZ) (Vibrio cholerae [5]) | MIC (Pseudomonas aeruginosa [6]; [25]) [µg/mL] | MIC (Candida tropicalis [17]) | MIC (Vibrio cholerae [3]) | MIC (Bacillus pumilus [4]) | MIC (Pseudomonas aeruginosa [6]) | MIC (Shigella dysenteriae [9]) | MIC (Candida albicans [18]) | MIC (Klebsiella pneumoniae [10]) | MIC (Escherichia coli [11]) | MIC (Cryptococcus neoformans [19]) | MIC (Micrococcus luteus [13]) | MIC (Aspergillus niger [20]) | MIC (Staphylococcus aureus [16]) | diameter of the inhibition zone (DIZ) (Cryptococcus neoformans [23]) | diameter of the inhibition zone (DIZ) (Candida albicans [24]) | other results
CC1(C)S[C@@H]2[C@H](NC(=O)[C@H](N)c3ccc(O)cc3)C(=O)N2[C@H]1C(=O)O [AMOXICILLIN] | 7.5 mm | 11 mm | 256 (≈ 701 µM) | 0.5 (≈ 1.37 µM) | 7 mm | 256 (≈ 701 µM) |  |  |  |  |  |  |  |  |  |  |  |  |  |  | diameter of the inhibition zone (DIZ) (Bacillus pumilus [7]): 10 mm; diameter of the inhibition zone (DIZ) (Shigella dysenteriae [8]): 9.5 mm; MIC (Shigella dysenteriae [9]; Shigella dysenteriae, 15, 24 h): 100 µg/mL (≈ 274 µM); MIC (Klebsiella pneumoniae [10]; J/I/4, 24 h): 256 µg/mL (≈ 701 µM); MIC (Escherichia coli [11]; Escherichia coli, 319, 24 h): 4 µg/mL (≈ 10.9 µM); diameter of the inhibition zone (DIZ) (Staphylococcus aureus [12]): 10.5 mm; MIC (Micrococcus luteus [13]; ATCC 9341, 24 h): 1 µg/mL (≈ 2.74 µM); diameter of the inhibition zone (DIZ) (Escherichia coli [14]): 8 mm; diameter of the inhibition zone (DIZ) (Klebsiella pneumoniae [15]): 8 mm; MIC (Staphylococcus aureus [16]; [26]): 0.5 µg/mL (≈ 1.37 µM)
c1cnc2c(OCc3nc4ccccc4nc3COc3cccc4cccnc34)cccc2c1 |  |  |  |  |  |  | inactive | inactive | inactive | inactive | inactive | inactive | inactive | inactive | inactive | inactive | inactive | inactive |  |  | 
Clc1ccc(OCc2ccc(COc3ccc(Cl)c4cccnc34)cc2)c2ncccc12 |  |  |  |  |  |  | inactive | inactive | inactive | inactive | inactive | inactive | inactive | inactive | inactive | inactive | inactive | inactive |  |  | 
Cc1ccc2cccc(OCc3cccc(COc4cccc5ccc(C)nc45)c3)c2n1 |  |  |  |  |  |  | inactive | inactive | inactive | inactive | inactive | inactive | inactive | inactive | inactive | inactive | inactive | inactive | inactive | inactive | diameter of the inhibition zone (DIZ) (Aspergillus niger [21]): inactive; diameter of the inhibition zone (DIZ) (Candida tropicalis [22]): inactive
Clc1ccc(OCc2nc3ccccc3nc2COc2ccc(Cl)c3cccnc23)c2ncccc12 | inactive | 7 mm | > 500 | 32 (≈ 62.3 µM) | inactive | > 500 | 1500 µg/mL (≈ 2920 µM) |  |  |  |  | 1000 µg/mL (≈ 1950 µM) |  |  | inactive |  | 1000 µg/mL (≈ 1950 µM) |  | inactive | 7.8 mm | diameter of the inhibition zone (DIZ) (Aspergillus niger [21]): 7.5 mm; diameter of the inhibition zone (DIZ) (Candida tropicalis [22]): 7.5 mm; diameter of the inhibition zone (DIZ) (Bacillus pumilus [7]): 8 mm; diameter of the inhibition zone (DIZ) (Shigella dysenteriae [8]): 6 mm; MIC (Shigella dysenteriae [9]; Shigella dysenteriae, 15, 24 h): > 500 µg/mL; MIC (Klebsiella pneumoniae [10]; J/I/4, 24 h): > 500 µg/mL; MIC (Escherichia coli [11]; Escherichia coli, 319, 24 h): 32 µg/mL (≈ 62.3 µM); diameter of the inhibition zone (DIZ) (Staphylococcus aureus [12]): inactive; MIC (Micrococcus luteus [13]; ATCC 9341, 24 h): 32 µg/mL (≈ 62.3 µM); diameter of the inhibition zone (DIZ) (Escherichia coli [14]): 8 mm; diameter of the inhibition zone (DIZ) (Klebsiella pneumoniae [15]): 6 mm; MIC (Staphylococcus aureus [16]; [26]): > 500 µg/mL
Cc1ccc2cccc(OCc3cc4ccccc4cc3COc3cccc4ccc(C)nc34)c2n1 | inactive | inactive | > 500 | 64 (≈ 136 µM) | inactive | > 500 | inactive |  |  |  |  | inactive |  |  | inactive |  | inactive |  |  |  | diameter of the inhibition zone (DIZ) (Bacillus pumilus [7]): 6 mm; diameter of the inhibition zone (DIZ) (Shigella dysenteriae [8]): 8 mm; MIC (Shigella dysenteriae [9]; Shigella dysenteriae, 15, 24 h): > 500 µg/mL; MIC (Klebsiella pneumoniae [10]; J/I/4, 24 h): > 1000 µg/mL; MIC (Escherichia coli [11]; Escherichia coli, 319, 24 h): > 500 µg/mL; diameter of the inhibition zone (DIZ) (Staphylococcus aureus [12]): 6.1 mm; MIC (Micrococcus luteus [13]; ATCC 9341, 24 h): > 1000 µg/mL; diameter of the inhibition zone (DIZ) (Escherichia coli [14]): 7 mm; diameter of the inhibition zone (DIZ) (Klebsiella pneumoniae [15]): inactive; MIC (Staphylococcus aureus [16]; [26]): > 500 µg/mL
Cc1ccc2cccc(OCc3nc4ccccc4nc3COc3cccc4ccc(C)nc34)c2n1 |  |  |  |  |  |  | inactive | inactive | inactive | inactive | inactive | inactive | inactive | inactive | inactive | inactive | inactive | inactive |  |  | 
OC(Cn1cncn1)(Cn1cncn1)c1ccc(F)cc1F [FLUCONAZOLE] |  |  |  |  |  |  | 8 µg/mL (≈ 26.1 µM) |  |  |  |  | 4 µg/mL (≈ 13.1 µM) |  |  | 8 µg/mL (≈ 26.1 µM) |  | 10 µg/mL (≈ 32.7 µM) |  | 8.5 mm | 10.2 mm | diameter of the inhibition zone (DIZ) (Aspergillus niger [21]): 8.6 mm; diameter of the inhibition zone (DIZ) (Candida tropicalis [22]): 8.5 mm
c1cnc2c(OCc3ccc(COc4cccc5cccnc45)cc3)cccc2c1 |  |  |  |  |  |  | inactive | inactive | inactive | inactive | inactive | inactive | inactive | inactive | inactive | inactive | inactive | inactive | inactive | inactive | 
c1cc(COc2cccc3cccnc23)cc(COc2cccc3cccnc23)c1 |  |  |  |  |  |  | inactive | inactive | inactive | inactive | inactive | inactive | inactive | inactive | inactive | inactive | inactive | inactive | inactive | inactive | diameter of the inhibition zone (DIZ) (Aspergillus niger [21]): inactive; diameter of the inhibition zone (DIZ) (Candida tropicalis [22]): inactive
c1ccc2cc(COc3cccc4cccnc34)c(COc3cccc4cccnc34)cc2c1 | 8.2 mm | 6 mm | > 500 | 256 (≈ 579 µM) | 7.1 mm | > 500 | inactive |  |  |  |  | inactive |  |  | inactive |  | inactive |  |  |  | diameter of the inhibition zone (DIZ) (Bacillus pumilus [7]): 9 mm; diameter of the inhibition zone (DIZ) (Shigella dysenteriae [8]): 6 mm; MIC (Shigella dysenteriae [9]; Shigella dysenteriae, 15, 24 h): > 500 µg/mL; MIC (Klebsiella pneumoniae [10]; J/I/4, 24 h): > 500 µg/mL; MIC (Escherichia coli [11]; Escherichia coli, 319, 24 h): 32 µg/mL (≈ 72.3 µM); diameter of the inhibition zone (DIZ) (Staphylococcus aureus [12]): 6 mm; MIC (Micrococcus luteus [13]; ATCC 9341, 24 h): > 500 µg/mL; diameter of the inhibition zone (DIZ) (Escherichia coli [14]): 9.7 mm; diameter of the inhibition zone (DIZ) (Klebsiella pneumoniae [15]): 6.4 mm; MIC (Staphylococcus aureus [16]; [26]): > 500 µg/mL
GENTAMICIN |  |  |  |  |  |  |  | 2 µg/mL | 10 µg/mL | 4 µg/mL | 2 µg/mL |  | 0.25 µg/mL |  |  | 24 µg/mL |  | 1 µg/mL |  |  | inhibition zone (IZ) (Micrococcus luteus [2]): 7 mm; inhibition zone (IZ) (Vibrio cholerae [5]): 11 mm; inhibition zone (IZ) (Bacillus pumilus [7]): 7 mm; inhibition zone (IZ) (Shigella dysenteriae [8]): 12 mm; inhibition zone (IZ) (Klebsiella pneumoniae [15]): 9 mm
Cc1ccc2cccc(OCc3ccc(COc4cccc5ccc(C)nc45)cc3)c2n1 |  |  |  |  |  |  | inactive | inactive | inactive | inactive | inactive | inactive | inactive | inactive | inactive | inactive | inactive | inactive |  |  | 
